Test results reported in patent US10758534B2 (Vertex Pharmaceuticals Incorporated, priority 2014, dated 2020).

Each compound was assayed against T1, F508del (Homo sapiens, UniProt P13569, DEL508-508) (assay: Protocol 2: FRET membrane potential optical assay (VIPR), identification of correction compounds). Settings: F508del CFTR modulator activity; compounds of Table 1; read-out: EC30.
T1 construct: expressed in transfected cells
Format: cell-based
In short: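 NIH3T3 mouse fibroblasts stably expressing F508del were treated with test compound for 16 hrs at 37° C. in serum-free medium; 27° C. incubation served as positive control. F508del was activated with 10 μM forskolin plus 20 μM genistein in Cl^−-free medium, and Cl^− efflux-driven depolarization was read by DiSBAC2(3)/CC2-DMPE FRET.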

T1 sequence (P13569 with tags, fused parts or gaps DEL508-508): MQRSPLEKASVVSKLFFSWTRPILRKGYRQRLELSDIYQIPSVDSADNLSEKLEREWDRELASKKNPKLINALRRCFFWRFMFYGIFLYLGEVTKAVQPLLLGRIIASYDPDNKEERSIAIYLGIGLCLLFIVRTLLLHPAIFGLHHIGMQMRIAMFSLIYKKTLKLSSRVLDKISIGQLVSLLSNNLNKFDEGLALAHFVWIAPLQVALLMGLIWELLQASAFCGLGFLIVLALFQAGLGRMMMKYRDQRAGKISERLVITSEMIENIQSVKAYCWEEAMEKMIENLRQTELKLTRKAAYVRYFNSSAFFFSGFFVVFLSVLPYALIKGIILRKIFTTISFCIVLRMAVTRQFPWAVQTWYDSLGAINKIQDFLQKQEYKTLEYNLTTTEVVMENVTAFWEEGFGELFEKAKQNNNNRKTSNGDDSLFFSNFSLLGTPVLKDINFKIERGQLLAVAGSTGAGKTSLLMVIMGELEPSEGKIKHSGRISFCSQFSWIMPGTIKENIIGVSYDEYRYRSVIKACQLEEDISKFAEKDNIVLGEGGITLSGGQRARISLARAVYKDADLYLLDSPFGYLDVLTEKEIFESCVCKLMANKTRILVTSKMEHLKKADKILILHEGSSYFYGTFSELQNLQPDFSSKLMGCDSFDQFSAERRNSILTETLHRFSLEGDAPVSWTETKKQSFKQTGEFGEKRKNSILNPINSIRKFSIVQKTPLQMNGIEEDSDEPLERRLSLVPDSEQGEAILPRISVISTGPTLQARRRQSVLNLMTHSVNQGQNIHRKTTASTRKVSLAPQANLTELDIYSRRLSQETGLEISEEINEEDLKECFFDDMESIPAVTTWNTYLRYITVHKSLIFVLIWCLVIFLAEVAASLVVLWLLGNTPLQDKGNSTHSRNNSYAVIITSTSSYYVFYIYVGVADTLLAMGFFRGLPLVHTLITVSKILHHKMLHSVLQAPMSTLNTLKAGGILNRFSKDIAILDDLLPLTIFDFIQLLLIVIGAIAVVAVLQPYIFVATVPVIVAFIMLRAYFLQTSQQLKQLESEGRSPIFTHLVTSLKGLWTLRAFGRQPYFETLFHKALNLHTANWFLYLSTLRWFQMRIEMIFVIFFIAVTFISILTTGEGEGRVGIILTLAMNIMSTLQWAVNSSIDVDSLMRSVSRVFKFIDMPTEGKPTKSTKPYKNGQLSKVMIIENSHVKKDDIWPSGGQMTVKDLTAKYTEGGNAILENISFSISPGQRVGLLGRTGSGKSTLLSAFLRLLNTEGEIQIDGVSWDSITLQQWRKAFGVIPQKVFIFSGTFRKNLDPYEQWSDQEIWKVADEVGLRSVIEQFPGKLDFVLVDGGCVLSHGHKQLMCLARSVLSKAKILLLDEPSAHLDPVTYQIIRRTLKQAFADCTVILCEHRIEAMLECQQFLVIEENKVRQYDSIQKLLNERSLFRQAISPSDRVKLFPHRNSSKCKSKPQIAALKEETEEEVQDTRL

Row | EC30 [nM] | SMILES
1 | < 3000 | CC(CO)COc1ccn(-c2ccc(C(=O)NS(=O)(=O)c3cccnc3N)c(N3C[C@@H](C)CC3(C)C)n2)n1 (stereo partly drawn) [Compound 2192, N-[(2-amino-3-pyridyl)sulfonyl]-6-[3-(3-hydroxy-2-methyl-propoxy)pyrazol-1-yl]-2-[(4S)-2,2,4-trimethylpyrrolidin-1-yl]pyridine-3-carboxamide]
2 | < 3000 | CC1CN(c2ncccc2C(=O)NS(=O)(=O)c2cccc(Nc3ccc4c(ccn4C)c3)n2)C(C)(C)C1 (stereo not drawn) [Compound 2193, N—[[6-[(1-methylindol-5-yl)amino]-2-pyridyl]sulfonyl]-2-(2,2,4-trimethylpyrrolidin-1-yl)pyridine-3-carboxamide]
3 | < 3000 | COc1ccc(OC)c(-c2ccc(C(=O)NS(=O)(=O)c3cccnc3N)c(N3C[C@@H](C)CC3(C)C)n2)c1 [Compound 2195, N-[(2-amino-3-pyridyl)sulfonyl]-6-(2,5-dimethoxyphenyl)-2-[(4S)-2,2,4-trimethylpyrrolidin-1-yl]pyridine-3-carboxamide]
4 | < 3000 | COc1ccc2nc(N3C[C@@H](C)CC3(C)C)c(C(=O)NS(=O)(=O)c3cccc(N)n3)cc2c1 [Compound 2196, N-[(6-amino-2-pyridyl)sulfonyl]-6-methoxy-2-[(4S)-2,2,4-trimethylpyrrolidin-1-yl]quinoline-3-carboxamide]
5 | < 3000 | CCCC(C)Nc1cccc(S(=O)(=O)NC(=O)c2cccnc2N2CC(C)CC2(C)C)n1 (stereo not drawn) [Compound 2197, N—[[6-(1-methylbutylamino)-2-pyridyl]sulfonyl]-2-(2,2,4-trimethylpyrrolidin-1-yl)pyridine-3-carboxamide]
6 | < 3000 | Cc1nc2cc(Nc3cccc(S(=O)(=O)NC(=O)c4cccnc4N4CC(C)CC4(C)C)n3)ccc2s1 (stereo not drawn) [Compound 2198, N—[[6-[(2-methyl-1,3-benzothiazol-5-yl)amino]-2-pyridyl]sulfonyl]-2-(2,2,4-trimethylpyrrolidin-1-yl)pyridine-3-carboxamide]
7 | 3000 to 10000 | Cc1c(F)cccc1-c1ccc(C(=O)NS(=O)(=O)N2CC[C@H](N)C2)c(N2C[C@@H](C)CC2(C)C)n1 [Compound 2199, N-[(3S)-3-aminopyrrolidin-1-yl]sulfonyl-6-(3-fluoro-2-methyl-phenyl)-2-[(4S)-2,2,4-trimethylpyrrolidin-1-yl]pyridine-3-carboxamide]
8 | 3000 to 10000 | CC1CN(c2ncccc2C(=O)NS(=O)(=O)c2cccc(NC(C)C)n2)C(C)(C)C1 (stereo not drawn) [Compound 2200, N—[[6-(isopropylamino)-2-pyridyl]sulfonyl]-2-(2,2,4-trimethylpyrrolidin-1-yl)pyridine-3-carboxamide]
9 | < 3000 | CC1CN(c2ncccc2C(=O)NS(=O)(=O)c2cccc(NC3CCCCCCC3)n2)C(C)(C)C1 (stereo not drawn) [Compound 2202, N—[[6-(cyclooctylamino)-2-pyridyl]sulfonyl]-2-(2,2,4-trimethylpyrrolidin-1-yl)pyridine-3-carboxamide]
10 | < 3000 | Cc1cccc(-c2ccc(C(=O)NS(=O)(=O)c3cccc(N)n3)c(N3C[C@@H](C)CC3(C)C)n2)c1O [Compound 2203, N-[(6-amino-2-pyridyl)sulfonyl]-6-(2-hydroxy-3-methyl-phenyl)-2-[(4S)-2,2,4-trimethylpyrrolidin-1-yl]pyridine-3-carboxamide]
11 | < 3000 | Cc1ccc(F)c(-c2ccc(C(=O)NS(=O)(=O)c3cccnc3N)c(N3C[C@@H](C)CC3(C)C)n2)c1 [Compound 2205, N-[(2-amino-3-pyridyl)sulfonyl]-6-(2-fluoro-5-methyl-phenyl)-2-[(4S)-2,2,4-trimethylpyrrolidin-1-yl]pyridine-3-carboxamide]
12 | < 3000 | CC1CN(c2ncccc2C(=O)NS(=O)(=O)c2cccc(NCCOc3ccccc3)n2)C(C)(C)C1 (stereo not drawn) [Compound 2206, N—[[6-(2-phenoxyethylamino)-2-pyridyl]sulfonyl]-2-(2,2,4-trimethylpyrrolidin-1-yl)pyridine-3-carboxamide]
13 | < 3000 | CCOc1ccc(-c2ccc(C(=O)NS(=O)(=O)c3ccc[nH]c3=O)c(N3C[C@@H](C)CC3(C)C)n2)cc1 [Compound 2207, 6-(4-ethoxyphenyl)-N-[(2-oxo-1H-pyridin-3-yl)sulfonyl]-2-[(4S)-2,2,4-trimethylpyrrolidin-1-yl]pyridine-3-carboxamide]
14 | < 3000 | CC1CN(c2ncccc2C(=O)NS(=O)(=O)c2cccc(N3CCN(c4ccccc4)CC3)n2)C(C)(C)C1 (stereo not drawn) [Compound 2208, N—[[6-(4-phenylpiperazin-1-yl)-2-pyridyl]sulfonyl]-2-(2,2,4-trimethylpyrrolidin-1-yl)pyridine-3-carboxamide]
15 | < 3000 | CC1CN(c2ncc(-c3cc(OC(C)C)ccc3Cl)cc2C(=O)NS(=O)(=O)c2cccc(N)n2)C(C)(C)C1 (stereo not drawn) [Compound 2210, N-[(6-amino-2-pyridyl)sulfonyl]-5-(2-chloro-5-isopropoxy-phenyl)-2-(2,2,4-trimethylpyrrolidin-1-yl)pyridine-3-carboxamide]
16 | < 3000 | CC1CN(c2ncccc2C(=O)NS(=O)(=O)c2cccc(OC3CCC4CCCCC4C3)n2)C(C)(C)C1 (stereo not drawn) [Compound 2211, N-[(6-decalin-2-yloxy-2-pyridyl)sulfonyl]-2-(2,2,4-trimethylpyrrolidin-1-yl)pyridine-3-carboxamide]
17 | 3000 to 10000 | CC(Oc1nc(N2C[C@@H](C)CC2(C)C)c(C(=O)NS(=O)(=O)c2cccc(N)n2)cc1F)c1ccncc1 (stereo partly drawn) [Compound 2212, N-[(6-amino-2-pyridyl)sulfonyl]-5-fluoro-6-[1-(4-pyridyl)ethoxy]-2-[(4S)-2,2,4-trimethylpyrrolidin-1-yl]pyridine-3-carboxamide]
18 | < 3000 | CCOc1ccc(Nc2cccc(S(=O)(=O)NC(=O)c3cccnc3N3CC(C)CC3(C)C)n2)cc1 (stereo not drawn) [Compound 2214, N—[[6-(4-ethoxyanilino)-2-pyridyl]sulfonyl]-2-(2,2,4-trimethylpyrrolidin-1-yl)pyridine-3-carboxamide]
19 | 3000 to 10000 | Cc1noc(C)c1-c1ccc(C(=O)NS(=O)(=O)c2cccnc2N)c(N2C[C@@H](C)CC2(C)C)n1 [Compound 2215, N-[(2-amino-3-pyridyl)sulfonyl]-6-(3,5-dimethylisoxazol-4-yl)-2-[(4S)-2,2,4-trimethylpyrrolidin-1-yl]pyridine-3-carboxamide]
20 | < 3000 | CC1CN(c2ncccc2C(=O)NS(=O)(=O)c2cccc(Nc3ccc(Cl)cc3Cl)n2)C(C)(C)C1 (stereo not drawn) [Compound 2217, N—[[6-(2,4-dichloroanilino)-2-pyridyl]sulfonyl]-2-(2,2,4-trimethylpyrrolidin-1-yl)pyridine-3-carboxamide]
21 | < 3000 | CC1CN(c2ncccc2C(=O)NS(=O)(=O)c2cccc(NC3CCCCC3C)n2)C(C)(C)C1 (stereo not drawn) [Compound 2218, N—[[6-[(2-methylcyclohexyl)amino]-2-pyridyl]sulfonyl]-2-(2,2,4-trimethylpyrrolidin-1-yl)pyridine-3-carboxamide]
22 | 3000 to 10000 | COc1ccc(-c2ccc(C(=O)NS(=O)(=O)c3ccc[nH]c3=O)c(N3C[C@@H](C)CC3(C)C)n2)cc1F [Compound 2219, 6-(3-fluoro-4-methoxy-phenyl)-N-[(2-oxo-1H-pyridin-3-yl)sulfonyl]-2-[(4S)-2,2,4-trimethylpyrrolidin-1-yl]pyridine-3-carboxamide]
23 | 3000 to 10000 | C[C@@H]1CN(c2nc(-c3cccc(C(F)(F)F)c3)ccc2C(=O)NS(=O)(=O)N2CC[C@H](N)C2)C(C)(C)C1 [Compound 2220, N-[(3S)-3-aminopyrrolidin-1-yl]sulfonyl-6-[3-(trifluoromethyl)phenyl]-2-[(4S)-2,2,4-trimethylpyrrolidin-1-yl]pyridine-3-carboxamide]
24 | 3000 to 10000 | CCC(COC)Nc1cccc(S(=O)(=O)NC(=O)c2cccnc2N2CC(C)CC2(C)C)n1 (stereo not drawn) [Compound 2221, N—[[6-[1-(methoxymethyl)propylamino]-2-pyridyl]sulfonyl]-2-(2,2,4-trimethylpyrrolidin-1-yl)pyridine-3-carboxamide]
25 | 3000 to 10000 | COc1cccc(-c2ccc(C(=O)NS(=O)(=O)c3ccc[nH]c3=O)c(N3C[C@@H](C)CC3(C)C)n2)c1F [Compound 2222, 6-(2-fluoro-3-methoxy-phenyl)-N-[(2-oxo-1H-pyridin-3-yl)sulfonyl]-2-[(4S)-2,2,4-trimethylpyrrolidin-1-yl]pyridine-3-carboxamide]

Row | SMILES | EC30 [nM]
26 | CC(C)COc1ccn(-c2ccc(C(=O)NS(=O)(=O)c3cccnc3N)c(N3C[C@@H](C)CC3(C)C)n2)n1 [Compound 2191, N-[(2-amino-3-pyridyl)sulfonyl]-6-(3-isobutoxypyrazol-1-yl)-2-[(4S)-2,2,4-trimethylpyrrolidin-1-yl]pyridine-3-carboxamide] | < 3000
27 | CC(C)COc1cc(F)cc(-c2ccc(C(=O)NS(=O)(=O)c3cccc(N)n3)c(N3CC(C(C)C)CC3(C)C)n2)c1 (stereo not drawn) [Compound 2201, N-[(6-amino-2-pyridyl)sulfonyl]-6-(3-fluoro-5-isobutoxy-phenyl)-2-(4-isopropyl-2,2-dimethyl-pyrrolidin-1-yl)pyridine-3-carboxamide] | < 3000
28 | CC(C)COc1cc(F)cc(-c2ccc(C(=O)NS(=O)(=O)c3cccc(N)n3)c(N3CCC[C@H]3C(=O)OC(C)(C)C)n2)c1 [Compound 2204, tert-butyl (2S)-1-[3-[(6-amino-2-pyridyl)sulfonylcarbamoyl]-6-(3-fluoro-5-isobutoxy-phenyl)-2-pyridyl]pyrrolidine-2-carboxylate] | < 3000
29 | CC(C)COc1cc(F)cc(-c2ccc(C(=O)NS(=O)(=O)N3CC(N)CC(F)(F)C3)c(N3C[C@@H](C)CC3(C)C)n2)c1 (stereo partly drawn) [Compound 2209, N-[(5-amino-3,3-difluoro-1-piperidyl)sulfonyl]-6-(3-fluoro-5-isobutoxy-phenyl)-2-[(4S)-2,2,4-trimethylpyrrolidin-1-yl]pyridine-3-carboxamide] | < 3000
30 | CC(C)COc1cc(F)cc(-c2ccc(C(=O)NS(=O)(=O)c3cccc(N)n3)c(N3CCC[C@@H]3C(=O)OC(C)(C)C)n2)c1 [Compound 2216, tert-butyl (2R)-1-[3-[(6-amino-2-pyridyl)sulfonylcarbamoyl]-6-(3-fluoro-5-isobutoxy-phenyl)-2-pyridyl]pyrrolidin-2-carboxylate] | < 3000
